From patent publication US5663196A, “Methods for treating neoplastic disorders” (Boston University, priority 1993, dated 1997)
Read-outs that look alike come from different tables or passages of the source.

How the values were obtained:
LK lymphoma cells = test: 3H-Thymidine Incorporation, LK; format: cell-based, mouse
Excerpt: (§1) 2) The ^3 H-Thymidine Incorporation Test as described by Ju, S. T., Dorf, M. E. J. Immunol. 1985, 134, 3722. This test was used for monitoring cellular proliferation by monitoring DNA synthesis. The results are expressed as percent ^3 H-thymidine incorporation relative to an untreated control:
(§2) [% ^3 H-thymidine incorporation]=[cpm agent treated cells]/[cpm
(§3) where cpm=counts per minute. Treatments resulting in [% ^3 H-thymidine incorporation] of <50% are considered active.
(§4) The ^3 H-thymidine incorporation assay therefore measures the amount of DNA synthesis when the cells are in the "S" phase of the cell cycle, and is used to assess cell proliferation. Cancer cells, which have a very rapid cell cycle turnover, normally incorporate large amounts of tritium (^3 H) unless inhibited by an exogenous agent. […] While the trypan blue dye exclusion test is an indicator of cell death, the ^3 H-thymidine incorporation test indicates a cytostatic status (not necessarily cytotoxic) of the cell. As previously noted, this latter test was the primary screen used to guide the isolation to the active agent.
(§5) With the preferred purified active agent in hand, ^3 H-thymidine incorporation and trypan blue assays were initially performed at different dosages using LK and BW lymphoma ceil lines in order to confirm the activity of the preferred purified active agent, and to bracket the active concentration range for the preferred purified active agent. With a molecular weight of 328, a 1 μg/mL solution corresponds to 3 μM concentration. In addition, the time course of cell viability in the trypan blue assay was also monitored in order to best optimize subsequent assays to ensure that the cells were still viable at the time of measurement, and to ensure a nontoxic response of the cells to the agent. Toxicity of the agent would have been observed as cell death within 2 hours. The trypan blue assays (Table 7), run at 30 μM and 3 μM of purified agent (10 and 1 μg/mL, respectively), indicated excellent cell viability after 24 hours, though with a significant drop in viability after 48 hours at a 30 μM dose of preferred purified active agent. Consequently the results of the in vitro assays employing purified agent were all recorded after 24 hours. In the ^3 H-thymidine incorporation assay (Table 8), dosages ranging from 0.1 to 250 μg/mL were examined.

BW lymphoma cells = test: 35S-Methionine Incorporation (protein synthesis), BW; format: cell-based; details: Mus musculus; for activity at 1 µg/mL: 1 μg/mL; for activity at 10 µg/mL: 10 μg/mL
Excerpt: 3) ^35 S-Methionine Incorporation Test as described by Sorenson, C. M., Barry, M. A., Eastman, A. J. Natl. Canc. Inst. 1990, 82, 749. The results are expressed as percent ^35 S-methionine incorporation relative to an untreated control:
[% ^35 S-methionine incorporation]=[cpm agent treated cells]/[cpm
where cpm=counts per minute. Treatments resulting in [% ^35 S-methionine incorporation] of <50% are considered active.
The ^35 S-methionine incorporation test therefore measures protein synthesis. Activity in this bioassay could arise from inhibition of transcription and/or translation.
In this test, BW and LK lymphoma cells were treated with the preferred purified active agent at 1 μg/mL and 10 μg/mL for comparison with an untreated control. The treated cells were split into two groups, one of which was thoroughly washed to remove the preferred purified active agent prior to incubation with ^35 S-methionine.

[1] = tested on: BW8767 cells (BW resistant mutant); test: 3H-Thymidine Incorporation, BW8767; format: cell-based; details: Mus musculus, read-out: 3H-Thymidine Incorporation (DNA Synthesis) Inhibition (%)
Excerpt: as §1, §2, §3, §4
(§6) The final in vitro assays performed with the preferred purified active agent were intended to examine the scope of the activity in the trypan blue assay against a wider range of tumor cell lines (Tables 10 and 11). These cell lines included a […] lymphoma BW8767, a BW mutant which is more resistant than the BW cell lines used in other assays, as evidenced by the results in Tables 10 and 11.

[2] = tested on: BW (BW5147) lymphoma cells; test: Trypan Blue cell viability, BW (BW5147); format: cell-based; details: Mus musculus, read-out: Trypan Blue Cell Viability (%)
Excerpt: (§7) 1) The Trypan Blue Dye Exclusion Test for monitoring ceil viability as described by Phillips, H. J., in Tissue Culture Methods and Applications; Kruse, P. F., Jr., Patterson, M. K., Eds.; Academic Press, New York, 1973, 406, and by Wu, Y. W., Chik, L. L., Knazek, R. A. Cancer Research 1989, 49, 3754. The results of this assay are expressed as a percentage of viable cells:
(§8) [% viable cells]=[no. of alive cells]/[total no. of cells]×100
(§9) where the total no. cells=dead cells+alive cells. The results are compared directly with an untreated control, which typically show a three-to-four-fold increase for cancer cells, and a two-fold increase for normal cells. Treatments resulting in [% viable cells] of <30% are considered cytotoxic. Therefore, the trypan blue dye exclusion test was used to assess the number of dead and alive cells using various cell lines upon treatment with the crude and purified agent. This test provides a simple clue to the acute or late onset of a cytotoxic response. Readings for this and all other in vitro assays were taken 48 hours after treatment with the unpurified agent, and also […] after treatment for the purified agent. Thus, the trypan blue dye exclusion assay functions to confirm whether or not the cells were viable at the time readings were taken for other bioassays.
as §5

P815 cells (mastocytoma) [3] = test: 3H-Thymidine Incorporation, P815; format: cell-based; details: Mus musculus, read-out: 3H-Thymidine Incorporation (DNA Synthesis) Inhibition (%)
Excerpt: as §1, §2, §3, §4

P815 cells (mastocytoma) [4] = test: Trypan Blue cell viability, P815; format: cell-based; details: Mus musculus, P815, read-out: Trypan Blue Cell Viability (%)
Excerpt: as §7, §8, §9

[5] = tested on: CT26 cells (colon adenocarcinoma); test: Trypan Blue cell viability, CT26; format: cell-based; details: Mus musculus, CT26, read-out: Trypan Blue Cell Viability (%)
Excerpt: as §7, §8, §9, §6

[6] = tested on: RDM-4 cells (type T lymphoma); test: Trypan Blue cell viability, RDM-4; format: cell-based; details: Mus musculus, read-out: Trypan Blue Cell Viability (%)
Excerpt: as §7, §8, §9, §6

CC1=C2C(=O)C=C(CO)[C@@H]2[C@H]2OC(=O)[C@@H](C)[C@@H]2[C@@H](O)C1 [11β,13-dihydrolactucin, 3,6-dimethyl-4-hydroxy-9-hydroxymethyl-3,3a,4,5,9a,9b-hexahydroazuleno[4,5-b]furan-2,7-dione]
ED50, 3H-thymidine incorporation (LK lymphoma cells): micromolar range | inhibition at 0.1 µg/mL (LK lymphoma cells; Mus musculus, 3 h, 0.1 μg/mL, read-out: 3H-Thymidine Incorporation (DNA Synthesis) Inhibition (%)): 95% | inhibition at 1 µg/mL (LK lymphoma cells; Mus musculus, 3 h, 1 μg/mL, read-out: 3H-Thymidine Incorporation (DNA Synthesis) Inhibition (%)): 75% | inhibition at 10 µg/mL (LK lymphoma cells; Mus musculus, 3 h, 10 μg/mL, read-out: 3H-Thymidine Incorporation (DNA Synthesis) Inhibition (%)): 5% | inhibition at 25 µg/mL (LK lymphoma cells; Mus musculus, 3 h, 25 μg/mL, read-out: 3H-Thymidine Incorporation (DNA Synthesis) Inhibition (%)): 2% | inhibition at 100 µg/mL (LK lymphoma cells; Mus musculus, 3 h, 100 μg/mL, read-out: 3H-Thymidine Incorporation (DNA Synthesis) Inhibition (%)): 2% | inhibition at 250 µg/mL (LK lymphoma cells; Mus musculus, 3 h, 250 μg/mL, read-out: 3H-Thymidine Incorporation (DNA Synthesis) Inhibition (%)): 2% | activity at 1 µg/mL (BW lymphoma cells; BW (washed)): 100% | activity at 10 µg/mL (BW lymphoma cells; BW (washed)): 100% | activity at 1 µg/mL (BW lymphoma cells; BW, unwashed): 10% | activity at 10 µg/mL (BW lymphoma cells; BW, unwashed): 2% | inhibition at 0.1 µg/mL ([1]; 0.1 μg/mL): 100% | inhibition at 0.5 µg/mL ([1]; 0.5 μg/mL): 100% | inhibition at 1 µg/mL ([1]; 1.0 μg/mL): 80% | inhibition at 10 µg/mL ([1]; 10 μg/mL): 60% | viability at 1 µg/mL ([2]; 2 h): 100% | viability at 10 µg/mL ([2]; 2 h): 100% | viability at 1 µg/mL ([2]; 5 h): 100% | viability at 10 µg/mL ([2]; 5 h): 100% | viability at 1 µg/mL ([2]; 12 h): 100% | viability at 10 µg/mL ([2]; 12 h): 100% | viability at 1 µg/mL ([2]; 24 h): 100% | viability at 10 µg/mL ([2]; 24 h): 85% | viability at 1 µg/mL ([2]; 36 h): 90% | viability at 10 µg/mL ([2]; 36 h): 72% | viability at 1 µg/mL ([2]; 48 h): 90% | viability at 10 µg/mL ([2]; 48 h): 60% | viability at 0.1 µg/mL [2]: 100% | viability at 0.5 µg/mL [2]: 100% | viability at 1 µg/mL [2]: 100% | viability at 10 µg/mL [2]: 80% | inhibition at 0.1 µg/mL (P815 cells (mastocytoma) [3]; 0.1 μg/mL): 100% | inhibition at 0.5 µg/mL (P815 cells (mastocytoma) [3]; 0.5 μg/mL): 100% | inhibition at 1 µg/mL (P815 cells (mastocytoma) [3]; 1.0 μg/mL): 50% | inhibition at 10 µg/mL (P815 cells (mastocytoma) [3]; 10 μg/mL): 36% | viability at 0.1 µg/mL (P815 cells (mastocytoma) [4]): 100% | viability at 0.5 µg/mL (P815 cells (mastocytoma) [4]): 100% | viability at 1 µg/mL (P815 cells (mastocytoma) [4]): 100% | viability at 10 µg/mL (P815 cells (mastocytoma) [4]): 80% | viability at 0.1 µg/mL [5]: 100% | viability at 0.5 µg/mL [5]: 100% | viability at 1 µg/mL [5]: 100% | viability at 10 µg/mL [5]: 100% | viability at 0.1 µg/mL [6]: 100% | viability at 0.5 µg/mL [6]: 100% | viability at 1 µg/mL [6]: 100% | viability at 10 µg/mL [6]: 90%
